Experimental data taken from US20230085307A1, “PYRIDAZINONE COMPOUND AND HERBICIDE” (NISSAN CHEMICAL CORPORATION, priority 2019, published 2023).

What was measured:
late watergrass = experiment: Test Example 1: herbicidal activity, application before weed generation under submerged conditions (Table 16, symbol A); assay type: in vivo, late watergrass (Echinochloa oryzicola); conditions: amount of applied herbicide 320 g/ha
Summary of the method: (§1)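 Emulsion formulation, water-diluted to set dose, was put onto the flooded surface (4 cm depth, alluvial soil) the same day weeds were sown and 2.5-leaf rice transplanted. After 3 weeks at 25-30 °C under glass, each species was rated 0 (≤5% kill) to 5 (≥90% kill).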

Japanese bulrush = experiment: Test Example 1: herbicidal activity, application before weed generation under submerged conditions (Table 16, symbol B); assay type: in vivo, Japanese bulrush (Schoenoplectus juncoides); conditions: amount of applied herbicide 320 g/ha
Summary of the method: as §1

oval-leafed pondweed = experiment: Test Example 1: herbicidal activity, application before weed generation under submerged conditions (Table 16, symbol C); assay type: in vivo, oval-leafed pondweed (Monochoria vaginalis); conditions: amount of applied herbicide 320 g/ha
Summary of the method: as §1

barnyard grass [1] = experiment: Test Example 3: herbicidal effect by foliage application, Wagner pot (Table 18, symbol H); assay type: in vivo, barnyard grass (Echinochloa crus-galli)
Summary of the method: (§2)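 Plants were sown in alluvial soil held under 0.1–0.5 cm standing water and grown 14 days in a greenhouse at 25–30 °C. An emulsifiable formulation, water-diluted to the set dose, was then sprayed onto the foliage, and effects were scored three weeks later using previously defined criteria.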

Chinese sprangletop = experiment: Test Example 3: herbicidal effect by foliage application, Wagner pot (Table 18, symbol D); assay type: in vivo, chinese sprangletop (Leptochloa chinensis)
Summary of the method: as §2

rice flat sedge = experiment: Test Example 3: herbicidal effect by foliage application, Wagner pot (Table 18, symbol E); assay type: in vivo, rice flat sedge (Cyperus iria)
Summary of the method: as §2

southern crabgrass [2] = experiment: Test Example 4: herbicidal effect by soil treatment (Table 19, symbol F); assay type: in vivo, southern crabgrass (Digitaria ciliaris); conditions: amount of applied herbicide 320 g/ha
Summary of the method: (§3)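 Scoring uses the grading scale of an earlier test, three weeks post-application. Treatment consists of spraying a diluted emulsion formulation across the surface of sterilized diluvial soil in which seeds are buried near 1.5 cm deep; boxes are kept in a greenhouse between 25° C. and 30° C.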

green foxtail [3] = experiment: Test Example 4: herbicidal effect by soil treatment (Table 19, symbol G); assay type: in vivo, green foxtail (Setaria viridis); conditions: amount of applied herbicide 320 g/ha
Summary of the method: as §3

barnyard grass [4] = experiment: Test Example 4: herbicidal effect by soil treatment (Table 19, symbol H); assay type: in vivo, barnyard grass (Echinochloa crus-galli); conditions: amount of applied herbicide 320 g/ha
Summary of the method: as §3

wild oat [5] = experiment: Test Example 4: herbicidal effect by soil treatment (Table 19, symbol I); assay type: in vivo, wild oat (Avena fatua); conditions: amount of applied herbicide 320 g/ha
Summary of the method: as §3

blackgrass [6] = experiment: Test Example 4: herbicidal effect by soil treatment (Table 19, symbol J); assay type: in vivo, blackgrass (Alopecurus myosuroides); conditions: amount of applied herbicide 320 g/ha
Summary of the method: as §3

Italian ryegrass [7] = experiment: Test Example 4: herbicidal effect by soil treatment (Table 19, symbol K); assay type: in vivo, Italian ryegrass (Lolium multiflorum); conditions: amount of applied herbicide 320 g/ha
Summary of the method: as §3

windgrass [8] = experiment: Test Example 4: herbicidal effect by soil treatment (Table 19, symbol L); assay type: in vivo, windgrass (Apera spica-venti); conditions: amount of applied herbicide 320 g/ha
Summary of the method: as §3

velvetleaf [9] = experiment: Test Example 4: herbicidal effect by soil treatment (Table 19, symbol M); assay type: in vivo, velvetleaf (Abutilon theophrasti); conditions: amount of applied herbicide 320 g/ha
Summary of the method: as §3

redroot pigweed = experiment: Test Example 4: herbicidal effect by soil treatment (Table 19, symbol N); assay type: in vivo, redroot pigweed (Amaranthus retroflexus); conditions: amount of applied herbicide 320 g/ha
Summary of the method: as §3

lambsquarters [10] = experiment: Test Example 4: herbicidal effect by soil treatment (Table 19, symbol O); assay type: in vivo, lambsquarters (Chenopodium album); conditions: amount of applied herbicide 320 g/ha
Summary of the method: as §3

chickweed = experiment: Test Example 4: herbicidal effect by soil treatment (Table 19, symbol P); assay type: in vivo, common chickweed (Stellaria media); conditions: amount of applied herbicide 320 g/ha
Summary of the method: as §3

false cleavers = experiment: Test Example 4: herbicidal effect by soil treatment (Table 19, symbol Q); assay type: in vivo, false cleavers (Galium spurium); conditions: amount of applied herbicide 320 g/ha
Summary of the method: as §3

persian speedwell [11] = experiment: Test Example 4: herbicidal effect by soil treatment (Table 19, symbol R); assay type: in vivo, Persian speedwell (Veronica persica); conditions: amount of applied herbicide 320 g/ha
Summary of the method: as §3

southern crabgrass [12] = experiment: Test Example 5: herbicidal effect by foliage application, plastic box (Table 20, symbol F); assay type: in vivo, southern crabgrass (Digitaria ciliaris); conditions: foliage application, 320 g/ha, three weeks after application
Summary of the method: (§4)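 Post-emergence foliar test in sterilized diluvial soil. Compound applied as water-diluted emulsion at a predetermined rate to 14-day-old plants; evaluation at three weeks.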

green foxtail [13] = experiment: Test Example 5: herbicidal effect by foliage application, plastic box (Table 20, symbol G); assay type: in vivo, green foxtail (Setaria viridis); conditions: foliage application, 320 g/ha, three weeks after application
Summary of the method: as §4

barnyard grass [14] = experiment: Test Example 5: herbicidal effect by foliage application, plastic box (Table 20, symbol H); assay type: in vivo, barnyard grass (Echinochloa crus-galli); conditions: foliage application, 320 g/ha, three weeks after application
Summary of the method: as §4

wild oat [15] = experiment: Test Example 5: herbicidal effect by foliage application, plastic box (Table 20, symbol I); assay type: in vivo, wild oat (Avena fatua); conditions: foliage application, 320 g/ha, three weeks after application
Summary of the method: as §4

blackgrass [16] = experiment: Test Example 5: herbicidal effect by foliage application, plastic box (Table 20, symbol J); assay type: in vivo, blackgrass (Alopecurus myosuroides); conditions: foliage application, 320 g/ha, three weeks after application
Summary of the method: as §4

Italian ryegrass [17] = experiment: Test Example 5: herbicidal effect by foliage application, plastic box (Table 20, symbol K); assay type: in vivo, Italian ryegrass (Lolium multiflorum); conditions: foliage application, 320 g/ha, three weeks after application
Summary of the method: as §4

windgrass [18] = experiment: Test Example 5: herbicidal effect by foliage application, plastic box (Table 20, symbol L); assay type: in vivo, windgrass (Apera spica-venti); conditions: foliage application, 320 g/ha, three weeks after application
Summary of the method: as §4

velvetleaf [19] = experiment: Test Example 5: herbicidal effect by foliage application, plastic box (Table 20, symbol M); assay type: in vivo, velvetleaf (Abutilon theophrasti); conditions: foliage application, 320 g/ha, three weeks after application
Summary of the method: as §4

lambsquarters [20] = experiment: Test Example 5: herbicidal effect by foliage application, plastic box (Table 20, symbol O); assay type: in vivo, lambsquarters (Chenopodium album); conditions: foliage application, 320 g/ha, three weeks after application
Summary of the method: as §4

persian speedwell [21] = experiment: Test Example 5: herbicidal effect by foliage application, plastic box (Table 20, symbol R); assay type: in vivo, Persian speedwell (Veronica persica); conditions: foliage application, 320 g/ha, three weeks after application
Summary of the method: as §4

[22] = amount of applied herbicide 320 g/ha

Compound	Herbicidal effect, A: late watergrass (late watergrass)	Herbicidal effect, B: Japanese bulrush (Japanese bulrush)	Herbicidal effect, C: oval-leafed pondweed (oval-leafed pondweed)	F: southern crabgrass, herbicidal effect grade (southern crabgrass [2])	G: green foxtail, herbicidal effect grade (green foxtail [3])	H: barnyard grass, herbicidal effect grade (barnyard grass [4])	I: wild oat, herbicidal effect grade (wild oat [5])	J: blackgrass, herbicidal effect grade (blackgrass [6])	K: Italian ryegrass, herbicidal effect grade (Italian ryegrass [7])	L: windgrass, herbicidal effect grade (windgrass [8])	M: velvetleaf, herbicidal effect grade (velvetleaf [9])	N: redroot pigweed, herbicidal effect grade (redroot pigweed)	O: lambsquarters, herbicidal effect grade (lambsquarters [10])	P: chickweed, herbicidal effect grade (chickweed)	Q: false cleavers, herbicidal effect grade (false cleavers)	R: persian speedwell, herbicidal effect grade (persian speedwell [11])	herbicidal effect on southern crabgrass (F) (southern crabgrass [12])	herbicidal effect on green foxtail (G) (green foxtail [13])	herbicidal effect on barnyard grass (H) (barnyard grass [14])	herbicidal effect on wild oat (I) (wild oat [15])	also measured
CCCC(=O)Oc1c(C)nn(C)c(=O)c1-c1c(-c2ccc(F)cc2OC)sc2cc(OC)c(OC)cc12 [5-061]	5 (Herbicidal rate of 90% or more (almost completely withered))	3 (Herbicidal rate of 40% or more and less than 70%)	3 (Herbicidal rate of 40% or more and less than 70%)	0 (Herbicidal rate of 5% or less (almost no effect))	0 (Herbicidal rate of 5% or less (almost no effect))	0 (Herbicidal rate of 5% or less (almost no effect))	0 (Herbicidal rate of 5% or less (almost no effect))	0 (Herbicidal rate of 5% or less (almost no effect))	0 (Herbicidal rate of 5% or less (almost no effect))	0 (Herbicidal rate of 5% or less (almost no effect))	0 (Herbicidal rate of 5% or less (almost no effect))	0 (Herbicidal rate of 5% or less (almost no effect))	0 (Herbicidal rate of 5% or less (almost no effect))	3 (Herbicidal rate of 40% or more and less than 70%)	0 (Herbicidal rate of 5% or less (almost no effect))	2 (Herbicidal rate of 20% or more and less than 40%)	4 (Herbicidal rate of 70% or more and less than 90%)	4 (Herbicidal rate of 70% or more and less than 90%)	4 (Herbicidal rate of 70% or more and less than 90%)	4 (Herbicidal rate of 70% or more and less than 90%)	herbicidal effect on barnyard grass (H) (barnyard grass [1]; 320 g/ha): 5 (Herbicidal rate of 90% or more (almost completely withered)); herbicidal effect on Chinese sprangletop (D) (Chinese sprangletop; 320 g/ha): 3 (Herbicidal rate of 40% or more and less than 70%); herbicidal effect on rice flat sedge (E) (rice flat sedge; 320 g/ha): 4 (Herbicidal rate of 70% or more and less than 90%); herbicidal effect on blackgrass (J) (blackgrass [16]): 4 (Herbicidal rate of 70% or more and less than 90%); herbicidal effect on Italian ryegrass (K) (Italian ryegrass [17]): 4 (Herbicidal rate of 70% or more and less than 90%); herbicidal effect on windgrass (L) (windgrass [18]): 2 (Herbicidal rate of 20% or more and less than 40%); herbicidal effect on velvetleaf (M) (velvetleaf [19]): 0 (Herbicidal rate of 5% or less (almost no effect)); herbicidal effect on lambsquarters (O) (lambsquarters [20]): 3 (Herbicidal rate of 40% or more and less than 70%); herbicidal effect on persian speedwell (R) (persian speedwell [21]): 5 (Herbicidal rate of 90% or more (almost completely withered))
Cc1nn(C)c(=O)c(-c2c(-c3ccc(OC(F)F)cc3)oc3ccc(F)cc23)c1O [9-031]	2 (Herbicidal rate of 20% or more and less than 40%)	0 (Herbicidal rate of 5% or less (almost no effect))	0 (Herbicidal rate of 5% or less (almost no effect))	4 (Herbicidal rate of 70% or more and less than 90%)	4 (Herbicidal rate of 70% or more and less than 90%)	4 (Herbicidal rate of 70% or more and less than 90%)	0 (Herbicidal rate of 5% or less (almost no effect))	0 (Herbicidal rate of 5% or less (almost no effect))	5 (Herbicidal rate of 90% or more (almost completely withered))	4 (Herbicidal rate of 70% or more and less than 90%)	2 (Herbicidal rate of 20% or more and less than 40%)	5 (Herbicidal rate of 90% or more (almost completely withered))	3 (Herbicidal rate of 40% or more and less than 70%)	4 (Herbicidal rate of 70% or more and less than 90%)	3 (Herbicidal rate of 40% or more and less than 70%)	5 (Herbicidal rate of 90% or more (almost completely withered))	4 (Herbicidal rate of 70% or more and less than 90%)	5 (Herbicidal rate of 90% or more (almost completely withered))	4 (Herbicidal rate of 70% or more and less than 90%)	4 (Herbicidal rate of 70% or more and less than 90%)	Herbicidal effect on H (barnyard grass), foliage application (barnyard grass [1]; [22]): 5 (Herbicidal rate of 90% or more (almost completely withered)); Herbicidal effect on D (Chinese sprangletop), foliage application (Chinese sprangletop; [22]): 1 (Herbicidal rate of 5% or more and less than 20%); Herbicidal effect on E (rice flat sedge), foliage application (rice flat sedge; [22]): 5 (Herbicidal rate of 90% or more (almost completely withered)); herbicidal effect on blackgrass (J) (blackgrass [16]): 4 (Herbicidal rate of 70% or more and less than 90%); herbicidal effect on Italian ryegrass (K) (Italian ryegrass [17]): 5 (Herbicidal rate of 90% or more (almost completely withered)); herbicidal effect on windgrass (L) (windgrass [18]): 4 (Herbicidal rate of 70% or more and less than 90%); herbicidal effect on velvetleaf (M) (velvetleaf [19]): 5 (Herbicidal rate of 90% or more (almost completely withered)); herbicidal effect on lambsquarters (O) (lambsquarters [20]): 5 (Herbicidal rate of 90% or more (almost completely withered)); herbicidal effect on persian speedwell (R) (persian speedwell [21]): 5 (Herbicidal rate of 90% or more (almost completely withered))
